Patent publication US12098180B2, “Compositions and uses of vasoactive intestinal peptide (VIP) antagonists” (EMORY UNIVERSITY, priority 2018, dated 2024)

Key:
[1] = test system: T cells from luciferase+C57/BL6 mice; experiment: T cell proliferation in short-term culture with plate bound anti-CD3 antibody and IL-2; assay type: cell-based
Procedure: T cells from luciferase+C57/BL6 mice were harvested and cultured in 96-well plate with 1 μg/ml anti-CD3 antibody and 30 U/ml IL-2 in the presence of original VIPhyb, Ant-1, Ant-2, Ant-3, Ant-4, Ant-5, Ant-6, Ant-7 or Ant-8 at 1 μM.
T cells from luciferase+C57/BL6 mice were harvested and cultured in 96-well plate with either 0.5 μg/ml or 1 μg/ml anti-CD3 antibody and 30 U/ml IL-2 in the presence of original VIPhyb or Ant-8 at 0.5 μM, 1 μM or 3 μM.
The peptides (SEQ ID NO: 3-10 in FIG. 1) were added to short-term cultures of luciferase positive T-cells cultured in the presence of plate bound anti CD3 antibody in 96 well plates. The concentration of anti-CD3 antibody was either 0.5 mcg per ml or 1 mcg per ml. The T-cells from luciferase transgenic mice were added in the presence of low-dose IL-2 and 0.5 micromolar, 1 micromolar, or 3 micromolar concentrations of the original VIPhyb peptide or the alternative ANT-1 to ANT-8 peptide sequences were added.

[2] = test system: T cells from Chronic lymphocytic leukemia (CLL) donors; experiment: Ex vivo expansion of T cells with anti-CD3/28 beads and IL-2; assay type: cell-based; details: anti-CD3/28 beads and 30 U/mL IL-2
acute leukemia = details: Oncoimmunology, 2017, 6(5):e1304336; cited from earlier work

Row | Sequence | T-cell proliferation using lower concentrations of anti-CD3 ([1]; lower anti-CD3 concentration (0.5 mcg per ml), compared to control cultures with plate bound anti-CD3 and no added peptides) | antagonist activity compared to the native VIPhyb ([1]; overall conclusion from the T-cell proliferation cultures) | T-cell proliferation at 24 hours ([1]; peptide at 0.5, 1 and 3 micromolar, compared to the original VIPhyb peptide at the same concentrations) | yields of T cells during ex vivo expansion [2] | autologous anti-leukemia T cell response (acute leukemia)
1 | KPRRPYTDNYTRLRKQMAVKKYLNLILN [ANT-8, VIPhyb variant with S to L substitution at position 25] | more modest and not significantly different from control cultures | improved antagonist activity | enhanced T-cell proliferation | enhance yields of T cells | –
2 | KPRRPYTDNYTRLRKQMAVKKYLNSILN [VIPhyb, chimeric peptide VIP antagonist; six N-terminal amino acids of native VIP replaced] | – | – | – | – | enhances the autologous anti-leukemia T cell response
